How the values were obtained:
[1] = tested on: MDA-MB-231 cells; assay: Cell validation: cytotoxicity in MDA-MB-231 cells (CellTiter-Glo); type: cell-based
Procedure, shortened: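 MDA-MB-231 cells were seeded at 2000 cells/well and exposed to compounds for the specified number of days. Medium was then replaced with a 1:1 CellTiter-Glo reagent/serum-supplemented DMEM mix for 10 min, and viability was read as luminescence, proportional to living cell number.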

[2] = tested on: 4T1 R8 cells; assay: Cell viability assay, 4T1 R8 cells; type: cell-based, mouse; conditions: with 400 nM paclitaxel, 72 hr
Protocol: MCF-7, MDA-MB-231, MDA-MB-468, Hs578T, 4T1, and HeLa cell lines stably expressing H2B-mCherry and eGFP-tubulin (kindly provided by Dr. Anthony A. Hyman, Max-Planck-Institute for Molecular Cell Biology and Genetics, Dresden, Germany) were cultured in high-glucose Dulbecco's Modified Eagle Medium (DMEM). SK-BR-3 cells were cultured in McCoy's Modified 5a Medium. Hs578T cells were cultured in high-glucose DMEM supplemented with an additional 0.01 mg/mL bovine insulin. […] All mentioned media were supplemented with 10% fetal bovine serum (Gibco) and 1% Penicillin/Streptomycin (Corning), and cells were incubated at 37° C. in a humidified atmosphere containing 5% CO2. HEK293 cells were cultured in HE300 medium (GMEP incorporated, Japan) and maintained in suspension culture with 125 rpm and 8% CO2.
The cancer cells were cultured in a 96-well plate at a confluence of 1000-2000 cells/well with indicated drugs for specific days. When the time was up, the culture medium in the plate was aspirated and replaced with a prepared CellTiter-Glo reagent/DMEM mixture (1:1 mix of CellTiter-Glo reagent and serum-supplemented DMEM). After incubation for 10 min, the luminescence (proportional to the number of living cells) was measured with an ELISA plate reader to determine the cell viability.

CCN1CCN(C(=O)COc2ccc(/C=c3\sc4n(c3=O)C(c3ccc(Cl)cc3)C(C(=O)OC(C)C)=C(C)N=4)cc2)CC1.O=C(O)/C=C\C(=O)O (stereo not drawn) [7S9 (133), isopropyl (Z)-5-(4-chlorophenyl)-2-(4-(2-(4-ethylpiperazin-1-yl)-2-oxoethoxy)benzylidene)-7-methyl-3-oxo-2,3-dihydro-5H-thiazolo[3,2-a]pyrimidine-6-carboxylate maleate]
cytotoxicity on MDA-MB-231 cells (in words) ([1]; 72 hr): showed cytotoxicity | Cell validation (IC50) ([1]; cytotoxicity in MDA-MB-231 cells): + + + | fold increase of cell sensitivity to 7S9 by paclitaxel [2]: 8 fold

— patent publication US20250129101A1, “Compound, Pharmaceutical Composition Comprising the Same and Method for Treating Cancer Using the Same” (NATIONAL TSING HUA UNIVERSITY, priority 2023, published 2025)
